Laboratory results taken from patent publication US4762821A, “N',N"-dialkylguanidino dipeptides” (Syntex (U.S.A.) Inc., priority 1986, dated 1988).

Target: T1, ACE from crude rabbit lung acetone powder (Oryctolagus cuniculus, UniProt P12822)
T1 construct: a preparation of ACE from crude rabbit lung acetone powder; from tissue; host or cells: rabbit lung (crude acetone powder)
T1 sequence (P12822 34-1310): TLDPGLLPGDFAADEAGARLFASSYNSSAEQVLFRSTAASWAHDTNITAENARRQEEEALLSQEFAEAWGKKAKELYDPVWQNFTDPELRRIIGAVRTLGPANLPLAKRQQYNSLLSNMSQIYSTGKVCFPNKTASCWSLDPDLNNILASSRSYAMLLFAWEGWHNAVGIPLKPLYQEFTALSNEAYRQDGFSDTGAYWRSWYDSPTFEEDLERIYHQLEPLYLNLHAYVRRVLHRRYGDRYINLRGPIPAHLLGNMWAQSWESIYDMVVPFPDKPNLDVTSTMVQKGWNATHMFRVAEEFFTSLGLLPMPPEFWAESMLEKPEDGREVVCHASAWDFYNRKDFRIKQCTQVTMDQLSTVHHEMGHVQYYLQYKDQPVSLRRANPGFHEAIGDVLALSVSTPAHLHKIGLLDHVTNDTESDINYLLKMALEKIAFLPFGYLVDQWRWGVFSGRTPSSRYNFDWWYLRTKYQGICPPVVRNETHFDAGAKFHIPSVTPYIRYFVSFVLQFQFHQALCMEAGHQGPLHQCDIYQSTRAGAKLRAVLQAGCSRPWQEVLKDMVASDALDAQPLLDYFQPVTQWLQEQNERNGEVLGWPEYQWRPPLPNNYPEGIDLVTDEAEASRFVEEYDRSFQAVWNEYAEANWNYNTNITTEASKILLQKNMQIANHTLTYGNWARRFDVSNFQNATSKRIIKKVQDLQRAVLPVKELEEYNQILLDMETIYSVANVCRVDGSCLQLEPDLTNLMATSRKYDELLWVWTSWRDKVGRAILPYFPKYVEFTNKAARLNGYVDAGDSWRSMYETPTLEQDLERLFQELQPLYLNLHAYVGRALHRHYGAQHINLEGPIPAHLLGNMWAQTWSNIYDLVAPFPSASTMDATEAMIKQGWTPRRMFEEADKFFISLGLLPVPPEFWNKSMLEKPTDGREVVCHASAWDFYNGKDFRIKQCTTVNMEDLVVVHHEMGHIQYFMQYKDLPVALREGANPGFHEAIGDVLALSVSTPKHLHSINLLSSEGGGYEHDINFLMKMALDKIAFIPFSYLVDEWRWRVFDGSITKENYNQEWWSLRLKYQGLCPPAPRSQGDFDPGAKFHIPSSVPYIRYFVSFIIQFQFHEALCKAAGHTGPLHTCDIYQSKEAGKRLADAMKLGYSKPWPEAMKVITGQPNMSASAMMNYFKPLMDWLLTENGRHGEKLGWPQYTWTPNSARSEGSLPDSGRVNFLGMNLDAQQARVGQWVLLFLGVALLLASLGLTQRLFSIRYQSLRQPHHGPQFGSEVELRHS
Assay: in vitro ACE inhibition, hydrolysis of hippuryl-histidyl-leucine (HHL)
Assay type: biochemical
Settings: substrate HHL; test compound studied at concentrations between 10^-9 to 10^-4 M
Method: A number of in vitro and in vivo models are available to assess the biological activity of ACE inhibitors. (cf E. W. Petrillo, Jr. and M. A. Ondetti, Medical Res. Rev. 2, 1 (1982) and references therein). A particularly useful in vitro test employs a preparation of ACE from rabbit lung (either crude or purified) and uses the synthetic substrate (hippuryl-histidyl-leucine) as substrate (D. W. Cushman and H. S. Cheung, Biochem. Pharmacol., 20, 1637 (1971)). The substances to be tested are assessed for their ability to block the cleavage of the substrate and doses which cause 50% inhibition of the hydrolysis of the substrate are determined (ID50). In this and other studies, the incorporation of a literature standard (usually captopril) is helpful.
The ACE inhibiting ability of the dipeptides of formula A is assessed in the in vitro model employing a preparation of ACE from crude rabbit lung acetone powder. Hippuryl-histidyl-leucine (HHL) is used as synthetic substrate to be cleaved (hydrolysed) by ACE (D. W. Cushman and H. S. Cheung, Biochem. Pharmacol., 20, 1637 (1971)). The following compounds of formula A, identified by Arabic numerals (referred to above), were assessed for their ability to block the hydrolysis of HHL to the C-terminal dipeptide His-Leu by the ACE preparation.

Compound	ID50 (dose which causes a 50% inhibition of the hydrolysis of HHL)
CCN=C(NCC)NCCCC[C@H](N[C@@H](C)C(=O)N1c2ccccc2C[C@H]1C(=O)O)C(=O)O [(10), (S)-N-[(S)-2-[N^G,N^G' -diethyl-(S)-homoargin-Nα-yl]propanoyl]-2-carboxy-2,3-dihydroindole]	0.18 µM
CCN=C(NCC)NCCCCC(NC(CC)C(=O)N1CCC[C@H]1C(=O)O)C(=O)O (stereo partly drawn) [(12), N-[2-(N^G,N^G' -diethyl-L-homoargin-N^α -yl)butanoyl]-L-proline]	0.23 µM
C[C@H](N[C@@H](CCCCNC(=NCC(F)(F)F)NCC(F)(F)F)C(=O)O)C(=O)N1Cc2ccccc2C[C@H]1C(=O)O [(2), (S)-N-[(S)-2-[N^G,N^G' -bis(2,2,2-trifluoroethyl)-(S)-homoargin-Nα-yl]propionyl]-THIQ]	0.09 µM
CCCC(NC(CCCCNC(=NCC)NCC)C(=O)O)C(=O)N1CCC[C@H]1C(=O)O (stereo partly drawn) [(13), N-[2-(N^G,N^G' -diethyl-L-homoargin-N^α -yl)pentanoyl]-L-proline]	0.06 µM

Further lines, results first:

ID50 (dose which causes a 50% inhibition of the hydrolysis of HHL)	Compound
0.06 µM	CCN=C(NCC)NCCCC[C@H](N[C@@H](C)C(=O)N1Cc2ccccc2C[C@H]1C(=O)O)C(=O)O [(1), (S)-N-[(S)-2-[N^G,N^G' -diethyl-(S)-homoargin-Nα-yl]propionyl]-THIQ]
0.28 µM	CCCCNC(=NC)NCCCCC(NC(C)C(=O)N1CCC[C@H]1C(=O)O)C(=O)O (stereo partly drawn) [(11), N-[2-(N^G -methyl-N^G' -n-butyl-L-homoargin-N^α -yl)propionyl]-L-proline]
0.065 µM	CCN=C(NCC)NCCCC[C@H](N[C@@H](CC)C(=O)N1Cc2ccccc2C[C@H]1C(=O)O)C(=O)O [(4), (S)-N-[(S)-2-[N^G,N^G' -diethyl-(S)-homoargin-Nα-yl]butanoyl]-THIQ]
0.22 µM	CCCCNC(=NC)NCCCC[C@H](N[C@@H](C)C(=O)N1Cc2ccccc2C[C@H]1C(=O)O)C(=O)O [(3), (S)-N-[(S)-2-[N^G -methyl-N^G' -n-butyl-(S)-homoargin-Nα-yl]propionyl]-THIQ]
